How the values were obtained:
Format in all cases: cell-based
[1] = system: virus HIV (souche LAV-BRU); assay: Inhibition of the cytopathogenic effect of HIV in infected human lymphocyte culture (MTT viability); settings: 21 days after infection, human lymphocytes
Procedure: (§1) La source des leucocytes humains est un stock congelé en N₂ liquide (100 x 10⁶ cellules/ampoule) de leucocytes obtenus sur cytaphérèse d'individus (donneurs) sains. Au moment de l'essai, les cellules sont décongelées, mises en suspension dans 80 % de sérum de veau foetal (SVF) et 20 % de diméthylsulfoxyde et centrifugées à 1000 rpm (10 minutes). Le culot est mis en suspension dans un milieu RPMI [contenant 10 % Lymphocult (Interleukine 2 en provenance de Biotest Diagnostic), 10 % de SVF, pénicilline et streptomycine, respectivement 40 U/ml et 40 µg/ml], à raison de 1 x 10⁶ cellules/ml. Habituellement, on utilise un flacon de culture cellulaire contenant 40 à 60 ml de cette suspension cellulaire. Les cellules sont incubées 4 jours en présence de phytohémagglutinine PHA (0,1 % DIFCO), à 37°C sous une atmosphère contenant 95 % d'air et 5 % de gaz carbonioue. Les cellules sont alors centrifugées, lavées une fois dans du milieu frais (ci-dessus) et remises en suspension dans le même milieu à 1 x 10⁶ cellules/ml [(RPMI 10 % de SVF, 10 % de Lymphocult-antibiotiques ci-dessus) mais contenant 10 U/ml d'anticorps anti-interferon (IFN α) 5 µg/ml de prolybrène.
(§2) 200 µl de cette suspension cellulaire (200.000 cellules) sont déposés dans des puits d'une microplaque de cultures (à 96 puits). A chaque puits, on ajoute 25 µl du produit à tester [dilué 10 fois dans du tampon phosphate isotonique (TPI)] ou 25 µl du solvant TPI pour le contrôle. L'essai est fait en 2 séries : sur cellules infectées (pour déterminer l'activité antivirale) et sur cellules non infectées pour déterminer l'activité antiproliférative (cytotoxicité). On infecte alors avec 25 µl du virus HIV (souche LAV-BRU), alors que l'autre série reçoit (par puits) 25 µl du milieu (ci-dessus). Les cultures sont incubées 7 jours à 37°C (95 % d'air, 5 % de CO₂). 200 µl de surnageant sont alors prélevés, rejetés ou utilisés pour la détermination de l'activité transcriptase inverse. Les cellules du fond (sous 50 µl) sont alors soit testées pour leur viabilité (test MTT), soit additionnées de 200 µl de milieu frais (ci-dessus). Dans ce dernier cas, l'incubation est prolongée pendant encore 7 jours (test au jour 14). L'opération peut être répétée une semaine après (test au jour 21).

[2] = system: reverse transcriptase du virus HIV; assay: Reverse transcriptase activity in culture supernatant of infected, protected CEM cells (virus production)
Description: Chaque échantillon est divisé en 2 parties, l'une recevant à nouveau le produit étudié et l'autre cultivée en l'absence de produit.
Les cellules sont cultivées pendant 2 mois.
Les cellules infectées traitées ou non de manière continue par la minocycline ou la doxycycline ont été examinées en ce qui concerne la production de virus. La technique utilisée pour la détermination virale a été celle du dosage de la reverse transcriptase du virus HIV.
L'activité de la reverse transcriptase est mesurée directement sur 50 µl de surnageant de culture. 10 µl de tampon contenant 0,5 M de KCl, 5 mM de dithiotreitol (DTT) et 0,5 % de Triton X-100 sont ajoutés à tous les micropuits contenant les 50 µl de surnageant à tester. 40 µl de tampon contenant 1,25 mM d'éthylène glycol-bis(β-aminoéthyl éther) (EGTA), 0,125 M de Tris.HCl pH 7,8, 12,5 mM de MgCl₂, 3 µCi de (³H) Thymidine triphosphate (TTP), 0,05 DO₂₆₀ d'acide polyadénylique - acide thymidylique (poly rA-oligo dT) sont ajoutés ensuite. La microplaque est couverte au moyen d'un film plastique et incubée 60 minutes à 37°C.
On arrête la réaction en ajoutant 20 µl d'une solution glacée de 120 mM de Na₄P₂O₇ dans 60 % d'acide trichloracétique et les échantillons sont placés 15 minutes sur un lit de glace.
Les précipités sont filtrés sur fibres de verre en utilisant un laveur de cellules (Skatron) et les filtres sont lavés avec une solution de 12 mM de Na₄P₂O₇ dans 5 % d'acide trichloracétique.
Les filtres sont séchés et la radioactivité est comptée après ajout d'un liquide scintillant. Les essais sont faits en triple.

[3] = system: lymphocytes humains; assay: Antiproliferative activity (cytotoxicity) on non-infected human lymphocytes (MTT viability); settings: day 21
Procedure: as §1, §2

[4] = product present du jour 0 au jour 18 (1,2 µg/ml), day 20 after infection
[5] = product present du jour 0 au jour 18 (1,2 µg/ml), day 39 after infection
[6] = product present du jour 0 au jour 18 (1,2 µg/ml), day 42 after infection
[7] = product present du jour 0 au jour 18 (1,2 µg/ml), day 46 after infection
[8] = product present du jour 0 au jour 18 (1,2 µg/ml), day 49 after infection
[9] = product present du jour 0 au jour 18 (1,2 µg/ml), day 53 after infection
[10] = product present du jour 0 au jour 18 (1,2 µg/ml), day 56 after infection
[11] = product present du jour 0 au jour 18 (1,2 µg/ml), day 60 after infection
[12] = product present du jour 0 au jour 18 (1,2 µg/ml), day 80 after infection
[13] = product present du jour 0 à la fin de l'expérience (1,2 µg/ml), day 20 after infection
[14] = product present du jour 0 à la fin de l'expérience (1,2 µg/ml), day 39 after infection
[15] = product present du jour 0 à la fin de l'expérience (1,2 µg/ml), day 42 after infection
[16] = product present du jour 0 à la fin de l'expérience (1,2 µg/ml), day 46 after infection
[17] = product present du jour 0 à la fin de l'expérience (1,2 µg/ml), day 49 after infection
[18] = product present du jour 0 à la fin de l'expérience (1,2 µg/ml), day 53 after infection
[19] = product present du jour 0 à la fin de l'expérience (1,2 µg/ml), day 56 after infection
[20] = product present du jour 0 à la fin de l'expérience (1,2 µg/ml), day 60 after infection
[21] = product present du jour 0 à la fin de l'expérience (1,2 µg/ml), day 80 after infection

Row | Molecule | Cellules infectées Densité optique ([1]; 0,04 µg/ml) | Cellules infectées Densité optique ([1]; 0,12 µg/ml) | Cellules infectées Densité optique ([1]; 0,37 µg/ml) | Cellules infectées Densité optique ([1]; 10 µg/ml) | Cellules infectées Densité optique ([1]; 1,11 µg/ml) | Activité de la reverse transcriptase [2, 4] [coups/mn x 10⁻³] | Activité de la reverse transcriptase [2, 5] [coups/mn x 10⁻³] | Activité de la reverse transcriptase [2, 6] [coups/mn x 10⁻³] | Activité de la reverse transcriptase [2, 7] [coups/mn x 10⁻³] | Activité de la reverse transcriptase [2, 8] [coups/mn x 10⁻³] | Activité de la reverse transcriptase [2, 9] [coups/mn x 10⁻³] | Activité de la reverse transcriptase [2, 10] [coups/mn x 10⁻³] | Activité de la reverse transcriptase [2, 11] [coups/mn x 10⁻³] | Activité de la reverse transcriptase [2, 12] [coups/mn x 10⁻³] | Activité de la reverse transcriptase [2, 13] [coups/mn x 10⁻³] | Activité de la reverse transcriptase [2, 14] [coups/mn x 10⁻³] | Activité de la reverse transcriptase [2, 15] [coups/mn x 10⁻³] | Activité de la reverse transcriptase [2, 16] [coups/mn x 10⁻³] | Activité de la reverse transcriptase [2, 17] [coups/mn x 10⁻³] | Activité de la reverse transcriptase [2, 18] [coups/mn x 10⁻³] | further results
1 | doxycycline [Exemple 2] | 0,530 | 0,590 | 0,550 | 0,125 | 0,773 | 21 | 30 | 31 | 21 | 24 | 14 | 2 | 3 | 2 | 25 | 26 | 31 | 27 | 18 | 10 | Activité de la reverse transcriptase [2, 19]: 2 coups/mn x 10⁻³; Activité de la reverse transcriptase [2, 20]: 1,4 coups/mn x 10⁻³; Activité de la reverse transcriptase [2, 21]: 2 coups/mn x 10⁻³; Cellules non infectées Densité optique ([3]; 0,04 µg/ml): 0,775; Cellules non infectées Densité optique ([3]; 0,12 µg/ml): 0,765; Cellules non infectées Densité optique ([3]; 0,37 µg/ml): 0,853; Cellules non infectées Densité optique ([3]; 10 µg/ml): 0,103; Cellules non infectées Densité optique ([3]; 1,11 µg/ml): 0,835; Cellules non infectées Densité optique ([3]; 3,33 µg/ml): 0,670
2 | CN(C)c1ccc(O)c2c1C[C@H]1C[C@H]3[C@H](N(C)C)C(O)=C(C(N)=O)C(=O)[C@@]3(O)C(O)=C1C2=O [Exemple 5, minocycline] | 0,530 | 0,435 | 0,640 | 0,540 | 0,835 | 27 | 21 | 37 | 19 | 21 | 17 | 3 | 2 | 3 | 25 | 33 | 33 | 29 | 37 | 14 | Cellules infectées Densité optique ([1]; 3,33 µg/ml): 0,750; Activité de la reverse transcriptase [2, 19]: 2 coups/mn x 10⁻³; Activité de la reverse transcriptase [2, 20]: 2 coups/mn x 10⁻³; Activité de la reverse transcriptase [2, 21]: 5 coups/mn x 10⁻³; Cellules non infectées Densité optique ([3]; 0,04 µg/ml): 0,836; Cellules non infectées Densité optique ([3]; 0,12 µg/ml): 0,775; Cellules non infectées Densité optique ([3]; 0,37 µg/ml): 0,850; Cellules non infectées Densité optique ([3]; 10 µg/ml): 0,833; Cellules non infectées Densité optique ([3]; 1,11 µg/ml): 0,980; Cellules non infectées Densité optique ([3]; 3,33 µg/ml): 0,900

Source: patent EP0394122A2, “Use of tetracyclines to manufacture a medicament for the treatment and prevention of AIDS” (priority 1989, dated 1990)
